Tests used:
[1] = tested on: protein tau phosphorylation at AD-2 epitope; experiment: Western blot of tau phosphorylation at AD-2 epitope after single administration (Example 1); format: in vivo; settings: THY-Tau22 mice
Protocol: For immunoblot analysis, frozen mouse tissues (either hippocampus or cortex) were homogenized using a Precellys 24 tissue homogenizer in 350 μl RIPA buffer from Cell Signaling (20 mM Tris-HCl (pH 7.5), 150 mM NaCl, 1 mM Na2 EDTA, 1 mM EGTA, 1% NP-40, 1% sodium deoxycholate, 2.5 mM sodium pyrophosphate, 1 mM beta-glycerophosphate, 1 mM Na3VO4, 1 μg/ml leupeptin) to which proteases inhibitors (Sigma cocktail 1% v/v) and phosphatases inhibitors (okadaic acid 1 μM, sodium fluoride 100 mM) were added. After centrifugation, 16000×g 4° C. for 10 minutes, protein content in supernatants was determined with BioRad DC Protein Assay kit, using BSA as a standard. […] Tau protein was detected using the following mouse antibody: AD-2 1/20.000^e (Biorad, 56484) which recognizes tau protein phosphorylated on Ser396 and Ser404. […]
Following incubation with primary antibodies, blots were rinsed in TBS Tween 0.1% and incubated for 1 hour at room temperature in an anti-mouse IgG horseradish peroxidase (HRP)-linked secondary antibody 1/10,000^e (GE healthcare, NA9310) diluted in 5% non-fat dry milk in TBS Tween 0.1%. […] Quantification of immunoreactive signal was performed using Multigauge V3.0 software (FUJIFILM). […]

[2] = tested on: neurofibrillary tangles (NFTs); experiment: NFTs formation by Gallyas silver staining with quantitative image analysis after six months in food; format: in vivo, THY-Tau22 mice
Excerpt: 2-(Cyclohexylmethyl)-N-{2-[(2S)-1-methylpyrrolidin-2-yl]ethyl}-1,2,3,4-tetrahydroisoquinoline-7-sulfonamide difumarate monohydrate was administrated as a supplement in food at doses of 0.00034%, 0.0034% and 0.034% for six months in THY-Tau22 and wild type mice as follows: • Tg Veh (n=17) • Tg Active Ingredient—0.034% (n=17) • Tg Active Ingredient—0.0034% (n=17) • Tg Active Ingredient—0.00034% (n=17) • WT Veh (n=17) • WT Active Ingredient—0.034% (n=17) • WT Active Ingredient—0.0034% (n=17) • WT Active Ingredient—0.00034% (n=17) • WT groups treated with Active Ingredient are not used in the biochemical and histological studies.
After mice were decapitated, brains were removed and one hemibrain (used for histopathological studies) was immersion-postfixed for seven days at 4° C. with 4% formaldehyde (Carlo Erba/code 415691). The other hemibrain was prepared for biochemical quantitative measurements.
Post-fixed hemibrains were incubated in phosphate-buffered saline (PBS, P 3813-10PAK, Sigma), transferred to a 20% sucrose solution (code 27480.294—Prolabo) for 48 hours at 4° C. to ensure good cryopreservation of tissues during subsequent freezing. For freezing, hemibrains were immersed for one minute in isopentane solution (Ref. No. 24872-323—Prolabo) cooled with dry ice to between −25° C. and −30° C. and then stored at −25° C.
The entire hemibrains were cut with a cryostat (Microm, HM560). Serial sagittal brain tissue sections were collected onto Superfrost plus microscope glass slides (VWR) and then stored at −20° C. (sections of 20 μm of thickness), or placed in PBS-sodium azide 0.1% (S-2002, Sigma) containing wells to avoid any contamination and stored at 4° C. (sections of 30 μm of thickness).
NFTs are a major defining neuropathological feature of tau pathology in AD. They consist of bundles of paired helical filaments and straight filaments and their main constituent is the hyperphosphorylated microtubule-associated protein tau. Gallyas staining is generally used to stain neurofibrillary pathology (Sun A. et al., J. Histochem Cytochem, 2002, 50, 4, pp. 463-472).
A series of 20 μm hemibrain sections (directly mounted on slides) per mice was used for Gallyas staining (Braak and Braak, 1991, Brain Pathology, 1, pp. 213-216). The detailed protocol is as follows:
The following reagents are used: periodic acid (Sigma Ref. No. P 7875); sodium hydroxide (Prolabo Ref. No. 1737-1000); potassium iodide (Merck Ref. No. 1.05043.1000); silver nitrate (Sigma Ref. No. S.8157); 100% ascetic acid (Prolabo Ref. No. 20 104.298); sodium carbonate, anhydrous (Merck Ref. No. 1.06392-0500); ammonium nitrate (Prolabo Ref. No. 21280-293); silicotungstic acid (Sigma Ref. No. T 2786); 40% formaldehyde (Carlo Erba Ref. No. 415661); sodium thiosulfate (Sigma Ref. No. 21724-500 g).
A first stock solution (No. 1) was prepared by dissolving 50 g of anhydrous sodium carbonate in 1000 ml of deionized water. A second stock solution (No. II) was prepared by dissolving 2 g of ammonium nitrate, 2 g of silver nitrate, and 10 g of silicotungstic acid in 1000 ml of deionized water. A third stock solution (No. III) was prepared by dissolving 2 g of ammonium nitrate, 2 g of silver nitrate, 10 g of silicotungstic acid, and 7.3 ml of commercial 37% formaldehyde solution in 1000 ml of deionized water. The stock solutions are stable and can be stored in opaque containers.
Each of the following steps in the method are carried out with stirring. • 1. Pretreatment: The sections on slides were immersed in a solution of 5% periodic acid in water for 5 minutes, and then rinsed twice for 5 minutes in deionized water. • 2. Argentation: The silver iodide solution is freshly prepared by dissolving 4 g of sodium hydroxide in 50 ml of distilled water and adding 10 g of potassium iodide, which is mixed and allowed to dissolve completely. 3.5 ml of a solution of 1% silver nitrate in water is added while stirring. […]

[3] = tested on: THY-Tau22 transgenic mice; experiment: Cognitive deficits after 6 months of treatment; format: in vivo; settings: clinically relevant doses

CN1CCC[C@H]1CCNS(=O)(=O)c1ccc2c(c1)CN(CC1CCCCC1)CC2 [2-(cyclohexylmethyl)-N-{2-[(2S)-1-methylpyrrolidin-2-yl]ethyl}-1,2,3,4-tetrahydroisoquinoline-7-sulfonamide difumarate monohydrate]
effect on protein tau phosphorylation at AD-2 epitope in the cortex ([1]; 3 mg/kg per os): did not elicit any effect
effect on protein tau phosphorylation at AD-2 epitope in the cortex ([1]; 10 mg/kg per os): did not elicit any effect
protective effect against pathological neurons (tangles number), all analyzed brain ROIs ([2]; 0.00034% in food): no protective effect
NFTs formation in CA1 hippocampal subarea, vs vehicle ([2]; 0.0034% in food, n=9): statistical significant decrease
NFTs formation in cortex, vs vehicle ([2]; 0.0034% in food, n=9): statistical significant decrease
decrease in the number of tangles, CA1 hippocampal subarea ([2]; 0.0034% in food, significant): −25%
decrease of the number of pathological neurons (NFTs, Gallyas), cortex ([2]; 0.0034% in food, significant): −48%
decrease in NFTs, amygdala ([2]; 0.0034% in food, statistically non-significant): −19%
NFTs formation in CA1 hippocampal subarea, vs vehicle ([2]; 0.034% in food, n=9): statistical significant decrease
NFTs formation in amygdala, vs vehicle ([2]; 0.034% in food, n=9): statistical significant decrease
NFTs formation in cortex, vs vehicle ([2]; 0.034% in food, n=9): statistical significant decrease
decrease in NFTs, amygdala ([2]; 0.034% in food, significant): −31%
decrease in the number of tangles, CA1 hippocampal subarea ([2]; 0.034% in food, significant): −22%
decrease of the number of pathological neurons (NFTs, Gallyas), cortex ([2]; 0.034% in food, significant): −41%
cognitive deficits [3]: decreases cognitive deficits

Reference: patent US9789102B2, “H3 receptor antagonist for use in the treatment of alzheimer's disease” (SANOFI, priority 2012, dated 2017)
